Where “and” joins values, the source holds several entries; their conditions need not be identical. Identical values can stand only once. Toxic doses and inconclusive results are not listed. No stated cut-off is given here; in the data, active means T/C of 150% or more; inactive means T/C below 125%.
Test system: L1210 leukemia ip in BDF1 mice, survival T/C
Test: NCI In Vivo Anticancer Drug Screen. Data for tumor model L1210 Leukemia (intraperitoneal) in B6D2F1 (BDF1) mice
Details: endpoint: mean survival time, higher = longer survival
Summary of the method: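 Tumor was transplanted into mice, which were then dosed with test compound or vehicle alone. Survival was recorded for each group, and the treated figure was expressed relative to the control figure.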

[1] = dose: 100.0 mg/kg/injection, schedule: Q01DX001 (ip), vehicle: saline
[2] = dose: 200.0 mg/kg/injection, schedule: Q01DX001 (ip), vehicle: saline
[3] = dose: 400.0 mg/kg/injection, schedule: Q01DX001 (ip), vehicle: saline
[4] = dose: 100.0 mg/kg/injection, schedule: Q01DX009 (ip), vehicle: saline
[5] = dose: 200.0 mg/kg/injection, schedule: Q01DX009 (ip), vehicle: saline
[6] = dose: 400.0 mg/kg/injection, schedule: Q01DX009 (ip), vehicle: saline
[7] = dose: 100.0 mg/kg/injection, schedule: Q01DX001 (ip), vehicle: Klucel (hydroxypropylcellulose) (HPC)
[8] = dose: 200.0 mg/kg/injection, schedule: Q01DX001 (ip), vehicle: Klucel (hydroxypropylcellulose) (HPC)
[9] = dose: 400.0 mg/kg/injection, schedule: Q01DX001 (ip), vehicle: Klucel (hydroxypropylcellulose) (HPC)
[10] = dose: 100.0 mg/kg/injection, schedule: Q04DX002 (ip), vehicle: saline with Tween-80
[11] = dose: 200.0 mg/kg/injection, schedule: Q04DX002 (ip), vehicle: saline with Tween-80
[12] = dose: 100.0 mg/kg/injection, schedule: Q01DX009 (ip), vehicle: Klucel (hydroxypropylcellulose) (HPC)
[13] = dose: 100.0 mg/kg/injection, schedule: Q04DX003 (ip), vehicle: Klucel (hydroxypropylcellulose) (HPC)
[14] = dose: 200.0 mg/kg/injection, schedule: Q01DX009 (ip), vehicle: Klucel (hydroxypropylcellulose) (HPC)
[15] = dose: 200.0 mg/kg/injection, schedule: Q04DX003 (ip), vehicle: Klucel (hydroxypropylcellulose) (HPC)
[16] = dose: 400.0 mg/kg/injection, schedule: Q01DX009 (ip), vehicle: Klucel (hydroxypropylcellulose) (HPC)
[17] = dose: 400.0 mg/kg/injection, schedule: Q04DX003 (ip), vehicle: Klucel (hydroxypropylcellulose) (HPC)
[18] = dose: 200.0 mg/kg/injection, schedule: Q04DX003 (ip), vehicle: saline with Tween-80
[19] = dose: 400.0 mg/kg/injection, schedule: Q04DX003 (ip), vehicle: saline with Tween-80
[20] = dose: 50.0 mg/kg/injection, schedule: Q01DX009 (ip), vehicle: saline
[21] = dose: 50.0 mg/kg/injection, schedule: Q01DX009 (ip), vehicle: saline with Tween-80

Measured: T/C

Nc1nc2c(c(=O)[nH]1)NC(CCNc1ccc(C(=O)NC(CCC(=O)O)C(=O)O)cc1)CN2 (stereo unspecified)
inactive: dose: 50.0 mg/kg/injection, schedule: Q01DX001 (ip), vehicle: other 104 % of control | dose: 50.0 mg/kg/injection, schedule: Q01DX001 (ip), vehicle: saline 113 % of control | dose: 100.0 mg/kg/injection, schedule: Q01DX001 (ip), vehicle: other 101 % of control | [1] 116 % of control | dose: 108.0 mg/kg/injection, schedule: Q01DX009 (ip), vehicle: other 119 % of control | dose: 200.0 mg/kg/injection, schedule: Q01DX001 (ip), vehicle: other 110 % of control | [2] 107 % of control | dose: 300.0 mg/kg/injection, schedule: Q01DX009 (ip), vehicle: other 116 % of control | dose: 400.0 mg/kg/injection, schedule: Q01DX001 (ip), vehicle: other 110 % of control | [3] 115 % of control | dose: 500.0 mg/kg/injection, schedule: Q01DX009 (ip), vehicle: other 112 % of control

CC(C)c1cc(C(C)C)c(S(=O)(=O)/C=C/c2ccccc2)c(C(C)C)c1
inactive: [1] 104 % of control | [4] 91 % of control | dose: 100.0 mg/kg/injection, schedule: Q04DX003 (ip), vehicle: acetone 100 % of control | [2] 97 % of control | [5] 93 % of control | dose: 200.0 mg/kg/injection, schedule: Q04DX003 (ip), vehicle: acetone 97 % of control | [3] 92 % of control | [6] 89 % of control | dose: 400.0 mg/kg/injection, schedule: Q04DX003 (ip), vehicle: acetone 105 % of control

O=C1c2cc([N+](=O)[O-])ccc2CCC1C(O)(C(F)(F)F)C(F)(F)F (stereo unspecified)
inactive: dose: 100.0 mg/kg/injection, schedule: Q01DX001 (ip), vehicle: saline with Tween-80 100 % of control | dose: 200.0 mg/kg/injection, schedule: Q01DX001 (ip), vehicle: saline with Tween-80 102 % of control | dose: 400.0 mg/kg/injection, schedule: Q01DX001 (ip), vehicle: saline with Tween-80 100 % of control

COc1cccc(OC)c1OC
inactive: dose: 87.5 mg/kg/injection, schedule: Q01DX009 (ip), vehicle: Klucel (hydroxypropylcellulose) (HPC) 106 % of control | dose: 175.0 mg/kg/injection, schedule: Q01DX009 (ip), vehicle: Klucel (hydroxypropylcellulose) (HPC) 100 % of control | dose: 350.0 mg/kg/injection, schedule: Q01DX009 (ip), vehicle: Klucel (hydroxypropylcellulose) (HPC) 97 % of control

CCCCCCCCCCCCCCCCCC(=O)CCCCCCCCCCCCCCCCC
inactive: [7] 88 % of control | [8] 96 % of control | [9] 91 % of control

NC(CSSCC(N)=NCC12CC3CC(CC(C3)C1)C2)=NCC12CC3CC(CC(C3)C1)C2
inactive: [10] 97 % of control | [11] 105 % of control

CCCCN(C=O)c1ccccc1
inactive: [12] 108 % of control | [13] 97 % of control | [14] 104 % of control | [15] 103 % of control | [16] 87 % of control | [17] 97 % of control

CCC/C=C(\C)CCCCCCCCC (tested in a mixture with another compound)
inactive: dose: 100.0 mg/kg/injection, schedule: Q04DX003 (ip), vehicle: saline with Tween-80 98 % of control | [18] 101 % of control | [19] 106 % of control

CCOC(OCC)c1cc(=O)[nH]c(NC(C)=O)n1
inactive: [12] 101 % of control | [14] 101 % of control | [16] 106 % of control

COC(=O)C(N)Cc1ccc(OC(c2ccccc2)(c2ccccc2)c2ccccc2)cc1 (stereo unspecified)
inactive: [20] 101 % of control | [4] 103 % of control | [5] 100 % of control | [6] 100 % of control

CC[N+]12CC[N+](CC)(CC1)C2
inactive: [1] 103 % of control | [2] 101 % of control | [3] 91 % of control

O=C1NC(CN2CCCC(O)C2)C(=O)NC1CN1CCCC(O)C1 (stereo unspecified) (tested in a mixture with another compound)
inactive: dose: 25.0 mg/kg/injection, schedule: Q01DX009 (ip), vehicle: water 104 % of control | dose: 50.0 mg/kg/injection, schedule: Q01DX009 (ip), vehicle: water 104 % of control | dose: 100.0 mg/kg/injection, schedule: Q01DX009 (ip), vehicle: water 112 % of control | dose: 200.0 mg/kg/injection, schedule: Q01DX009 (ip), vehicle: water 108 % of control

N#Cc1ccccc1NC(=S)Nc1ccc([N+](=O)[O-])cc1
inactive: dose: 12.5 mg/kg/injection, schedule: Q01DX009 (ip), vehicle: saline with Tween-80 95 % of control | dose: 25.0 mg/kg/injection, schedule: Q01DX009 (ip), vehicle: saline with Tween-80 100 % of control | [21] 95 % of control and 88 % of control

CCOC(=O)C(CCCCC(C(=O)OCC)C(=O)OCC)C(=O)OCC
inactive: [1] 103 % of control | [2] 109 % of control | [3] 105 % of control

CCOC(=O)c1cnc(SC)nc1N1CCOCC1
inactive: [13] 98 % of control | [15] 93 % of control | [17] 100 % of control

c1ccc(-c2cc3ccccc3[nH]2)nc1
inactive: [13] 95 % of control | [15] 93 % of control | [17] 93 % of control

COc1ccc(/C(C)=N/N=C(\C)c2ccc(OC)cc2)cc1
inactive: [18] 94 % of control | [19] 91 % of control

C#CC1(NC(=O)NC(C)(C)C)CCCCC1
inactive: [10] 97 % of control | [11] 97 % of control | dose: 400.0 mg/kg/injection, schedule: Q04DX002 (ip), vehicle: saline with Tween-80 97 % of control

CC#CC(O)(C(=O)OCC)C1CCCCC1 (stereo unspecified)
inactive: [1] 96 % of control | [2] 113 % of control | [3] 100 % of control

CCCCCCCCCCCCC(CC(=O)O)C(=O)N(C)CC(O)C(O)C(O)C(O)CO (stereo unspecified)
inactive: [20] 106 % of control | [4] 100 % of control | [5] 110 % of control

CC1(C)CCc2ccccc2C1
inactive: [21] 104 % of control | dose: 100.0 mg/kg/injection, schedule: Q01DX009 (ip), vehicle: saline with Tween-80 96 % of control

Cc1ccc(S(=O)(=O)OC2C3OC(=S)OCC3OC3OC(C)(C)OC32)cc1 (stereo unspecified)
inactive: dose: 25.0 mg/kg/injection, schedule: Q04DX002 (ip), vehicle: saline 104 % of control | dose: 50.0 mg/kg/injection, schedule: Q04DX002 (ip), vehicle: saline 107 % of control | dose: 100.0 mg/kg/injection, schedule: Q04DX002 (ip), vehicle: saline 107 % of control

Cc1ccc(-n2c(=O)c(N=Nc3ccc(Cl)cc3)c(O)n(-c3ccccc3C)c2=S)cc1
inactive: [7] 97 % of control | [8] 87 % of control | [9] 92 % of control

CCN(CC)CCn1c2ccccc2c2cc3cnccc3c(C)c21
inactive: dose: 18.75 mg/kg/injection, schedule: Q01DX009 (ip), vehicle: saline 109 % of control | dose: 37.5 mg/kg/injection, schedule: Q01DX009 (ip), vehicle: saline 109 % of control | dose: 37.5 mg/kg/injection, schedule: Q04DX003 (ip), vehicle: Klucel (hydroxypropylcellulose) (HPC) 106 % of control | dose: 75.0 mg/kg/injection, schedule: Q01DX009 (ip), vehicle: saline 114 % of control | dose: 75.0 mg/kg/injection, schedule: Q04DX003 (ip), vehicle: Klucel (hydroxypropylcellulose) (HPC) 105 % of control | dose: 150.0 mg/kg/injection, schedule: Q01DX009 (ip), vehicle: saline 89 % of control | dose: 150.0 mg/kg/injection, schedule: Q04DX003 (ip), vehicle: Klucel (hydroxypropylcellulose) (HPC) 87 % of control

O=c1[nH]c(=O)c2cc3ccccc3nc2[nH]1
inactive: dose: 50.0 mg/kg/injection, schedule: Q01DX001 (ip), vehicle: carboxymethylcellulose (CMC) 97 % of control | dose: 100.0 mg/kg/injection, schedule: Q01DX001 (ip), vehicle: carboxymethylcellulose (CMC) 101 % of control | dose: 200.0 mg/kg/injection, schedule: Q01DX001 (ip), vehicle: carboxymethylcellulose (CMC) 95 % of control | dose: 400.0 mg/kg/injection, schedule: Q01DX001 (ip), vehicle: carboxymethylcellulose (CMC) 97 % of control
